Assay results published in PMC6018554, “2-[2-(4-(trifluoromethyl)phenylamino)thiazol-4-yl]acetic acid (Activator-3) is a potent activator of AMPK” (Scientific Reports, 2018).

Experiments:
[1] = molecular target: T1, recombinant human AMPK α1β1γ1 (Homo sapiens, UniProt P54619); experiment: In vitro AMP kinase assay (pACC ELISA), α1β1γ1; assay type: biochemical; settings: AMP 1 µM to 300 µM with Activator-3 30 nM
T1 construct: purchased SignalChem P47-10H-05/P48-10H-05 (for all four isozymes together); host or cells: baculovirus expression
T1 sequence (P54619 whole entry): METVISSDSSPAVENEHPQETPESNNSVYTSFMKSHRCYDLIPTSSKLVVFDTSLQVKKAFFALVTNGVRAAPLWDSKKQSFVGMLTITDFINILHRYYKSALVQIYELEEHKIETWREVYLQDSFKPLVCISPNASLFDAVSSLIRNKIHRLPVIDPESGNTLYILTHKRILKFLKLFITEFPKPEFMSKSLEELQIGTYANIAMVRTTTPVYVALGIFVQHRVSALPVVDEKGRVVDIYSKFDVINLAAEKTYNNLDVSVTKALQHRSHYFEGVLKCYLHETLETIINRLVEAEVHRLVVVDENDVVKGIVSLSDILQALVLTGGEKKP
T1 sequence (Q13131 whole entry partner): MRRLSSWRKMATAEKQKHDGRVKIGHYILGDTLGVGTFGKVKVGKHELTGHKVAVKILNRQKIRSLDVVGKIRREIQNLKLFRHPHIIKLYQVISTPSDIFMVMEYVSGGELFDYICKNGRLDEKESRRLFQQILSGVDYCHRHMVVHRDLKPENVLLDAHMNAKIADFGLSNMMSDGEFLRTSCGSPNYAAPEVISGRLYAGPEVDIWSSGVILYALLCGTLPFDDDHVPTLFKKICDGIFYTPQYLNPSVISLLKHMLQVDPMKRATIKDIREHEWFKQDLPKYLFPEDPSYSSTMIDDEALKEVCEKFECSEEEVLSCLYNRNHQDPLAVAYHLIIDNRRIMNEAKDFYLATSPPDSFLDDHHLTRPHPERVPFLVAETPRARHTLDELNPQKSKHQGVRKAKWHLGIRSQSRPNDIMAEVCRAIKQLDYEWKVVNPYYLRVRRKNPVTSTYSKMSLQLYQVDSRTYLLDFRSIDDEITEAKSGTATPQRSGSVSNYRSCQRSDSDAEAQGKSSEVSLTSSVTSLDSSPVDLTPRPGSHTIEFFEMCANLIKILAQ
T1 sequence (Q9Y478 whole entry partner): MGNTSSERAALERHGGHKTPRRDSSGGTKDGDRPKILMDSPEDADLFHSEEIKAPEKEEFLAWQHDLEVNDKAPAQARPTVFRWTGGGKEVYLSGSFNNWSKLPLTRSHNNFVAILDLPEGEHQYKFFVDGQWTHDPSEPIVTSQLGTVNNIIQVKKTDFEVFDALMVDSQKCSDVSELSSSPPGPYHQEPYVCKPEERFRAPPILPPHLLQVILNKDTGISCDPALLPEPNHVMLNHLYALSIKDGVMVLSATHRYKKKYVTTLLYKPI
Text: Having observed the effect of Activator-3 on the activation of AMPK in cell based assays, we next examined whether Activator-3 could activate AMPK directly or not. […] The activity of recombinant human AMPK (α1β1γ1, α2β1γ1, α2β2γ2 and α2β2γ3) in the presence of vehicle was considered as 100%. The EC50 of Activator-3 for the activation of α1β1γ1, α2β1γ1 and α2β2γ2 isozymes were similar. However, the activity of Activator-3 against α2β2γ3 was marginally higher (Fig. 1C).
(§1) A high binding Enzyme Immuno Assay (EIA) 96-well plate (Sigma: Cat# CLS3590) was coated with Acetyl CoA Carboxylase 2 (ACC: 175–271 amino acids) peptide, a direct substrate for AMPK, 100 ng per well (1:1000 ratio, Cat# 12–491, Upstate biotechnology) and incubated overnight at 25 °C. Reaction mixture was incubated at 30 °C for 2 h and reaction was stopped by washing the plate with 0.05% Tween 20 followed by incubation with pACC primary antibody and rabbit secondary antibody as described in cell based ELISA section. Assay buffer is composed of 10 mM DTT, 100 mM magnesium acetate, 50 μM ATP and 10 mM HEPES.

PFK1 = experiment: PFK activity assay kit; assay type: biochemical; settings: AMP at 100 µM and 1 mM
[2] = molecular target: T2, human recombinant α1β1γ1 AMPK γ1 mutants (R70G, R152G) (Homo sapiens, UniProt P54619, R70G); experiment: In vitro kinase assay with mutant AMPK pulled down from HEK-293T cells; assay type: biochemical; settings: 100 µM AMP; γ1 R70G
T2 construct: SFB triple tag (Streptavidin, Flag and Biotin; SFB-pDEST); host or cells: HEK-293T, streptavidin-bead pull-down with biotin elution
T2 sequence (P54619 whole entry R70G): as the sequence (P54619 whole entry) above, with R70G counted along it
T2 sequence (Q13131 whole entry partner): as the sequence (Q13131 whole entry partner) above
T2 sequence (Q9Y478 2-270 partner): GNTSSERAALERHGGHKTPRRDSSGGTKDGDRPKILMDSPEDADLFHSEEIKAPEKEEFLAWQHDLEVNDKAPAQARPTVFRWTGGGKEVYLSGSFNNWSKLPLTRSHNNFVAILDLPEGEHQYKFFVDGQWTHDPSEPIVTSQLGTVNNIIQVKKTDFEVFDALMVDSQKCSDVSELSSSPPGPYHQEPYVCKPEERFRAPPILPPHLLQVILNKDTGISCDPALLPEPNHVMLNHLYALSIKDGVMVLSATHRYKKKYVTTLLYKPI
Method: as §1
(§2) R70 and R152 residues in AMPK γ1 subunit (pDONR223-PRKAG1: purchased from addgene, cat# plasmid#23718) are mutated to glycine using overlapping extension PCR. Subsequently, the mutants were transferred into a triple tagged destination vector (Streptavidin, Flag and Biotin; SFB-pDEST) by using gateway cloning technology. The mutant DNA was transfected into HEK-293T cells using PEI following standard procedures. After 4 h of transfection, media was changed to DMEM containing 10% FBS. Cells were lysed in TENNS lysis buffer (20 mM Tris pH:8.0, 100 mM NaCl, 1 mM EDTA, 10 mM Na2H2P2O7, 10 mM NaF, 10 mM Na3VO4, 0.5% NP40) and subjected to pull down using streptavidin beads followed by biotin elution. To protect the protein from dephosphorylation, cells were treated with 500 μM AICAR prior to lysis. This purified protein was estimated by using nanodrop and taken for in vitro kinase assay to check whether Activator-3 is binding to the mutant AMPK or not, and the activity of the mutant protein was assessed by comparing with the wild type protein activity.

[3] = tested on: human recombinant α1β1γ1 AMPK γ1 mutants (R70G, R152G); experiment: as above; assay type: biochemical; settings: 100 µM AMP; γ1 mutants
Method: as §1, §2

[4] = molecular target: T3, recombinant human AMPK α2β2γ2 (Homo sapiens, UniProt Q9UGJ0); parameters: method as in PMID 28705990; settings: cited from earlier work
T3 construct: purchased SignalChem; host or cells: baculovirus expression
T3 sequence (Q9UGJ0 whole entry): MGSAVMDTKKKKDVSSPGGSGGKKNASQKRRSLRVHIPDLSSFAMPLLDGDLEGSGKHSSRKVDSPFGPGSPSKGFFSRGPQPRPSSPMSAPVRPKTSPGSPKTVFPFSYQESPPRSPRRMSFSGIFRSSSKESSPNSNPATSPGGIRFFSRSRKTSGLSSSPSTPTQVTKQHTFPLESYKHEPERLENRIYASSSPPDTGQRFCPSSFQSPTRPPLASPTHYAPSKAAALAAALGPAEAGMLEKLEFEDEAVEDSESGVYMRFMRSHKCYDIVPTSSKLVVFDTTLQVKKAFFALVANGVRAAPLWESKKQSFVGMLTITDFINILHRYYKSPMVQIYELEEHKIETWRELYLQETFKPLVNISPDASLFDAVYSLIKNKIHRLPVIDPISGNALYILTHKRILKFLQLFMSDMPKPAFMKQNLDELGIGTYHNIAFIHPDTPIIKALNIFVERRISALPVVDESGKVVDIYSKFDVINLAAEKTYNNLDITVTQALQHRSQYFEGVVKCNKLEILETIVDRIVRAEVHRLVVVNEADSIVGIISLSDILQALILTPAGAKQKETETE
T3 sequence (P54646 whole entry partner): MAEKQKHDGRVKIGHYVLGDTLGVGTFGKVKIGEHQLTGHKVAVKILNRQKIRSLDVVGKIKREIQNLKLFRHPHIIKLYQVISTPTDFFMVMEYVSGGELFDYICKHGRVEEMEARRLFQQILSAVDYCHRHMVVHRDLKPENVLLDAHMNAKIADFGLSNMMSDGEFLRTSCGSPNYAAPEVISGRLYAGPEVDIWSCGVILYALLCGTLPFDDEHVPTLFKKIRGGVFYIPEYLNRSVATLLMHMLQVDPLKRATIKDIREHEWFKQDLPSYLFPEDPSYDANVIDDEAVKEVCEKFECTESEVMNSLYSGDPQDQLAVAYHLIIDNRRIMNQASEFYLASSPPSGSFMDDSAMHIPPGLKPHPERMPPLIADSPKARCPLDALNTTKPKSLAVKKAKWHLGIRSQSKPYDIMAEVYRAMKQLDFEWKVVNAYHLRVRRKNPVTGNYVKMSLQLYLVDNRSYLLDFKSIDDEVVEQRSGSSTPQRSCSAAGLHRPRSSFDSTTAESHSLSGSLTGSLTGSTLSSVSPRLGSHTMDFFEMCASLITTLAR
T3 sequence (O43741 whole entry partner): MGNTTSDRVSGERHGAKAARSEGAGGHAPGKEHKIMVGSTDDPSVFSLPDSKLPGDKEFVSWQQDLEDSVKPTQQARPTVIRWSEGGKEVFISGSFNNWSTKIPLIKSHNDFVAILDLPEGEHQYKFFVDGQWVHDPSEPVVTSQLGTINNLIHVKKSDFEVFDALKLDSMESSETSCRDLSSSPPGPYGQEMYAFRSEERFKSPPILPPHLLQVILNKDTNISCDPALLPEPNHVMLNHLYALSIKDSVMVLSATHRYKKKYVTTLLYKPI

α1β1γ1 activity compared to 30 nM Activator-3 alone [1]	activation of AMPK, effect of R70G mutation [2]	SMILES	effect on PFK1 activity (PFK1)	AMPK activity of mutant proteins vs wild type [3]	Emax compared to basal activity [4]
progressive enhancement	did not impact	Nc1ncnc2c1ncn2C1OC(COP(=O)(O)O)C(O)C1O (centres unmarked) [AMP, reference compound]	activated	significant reduction	
		O[C@@H]1CO[C@H]2[C@@H]1OC[C@H]2Oc1nc2nc(-c3ccc(-c4ccccc4)cc3)c(Cl)cc2[nH]1 [MK-8722]			~ 250%
